The record followed here is article PMC11971462, “Generation and validation of a novel multitarget small molecule in glioblastoma” (Cell Death & Disease, 2025).

In test [1] the test system is patient-derived GSCs. Description: MTT cell viability, summary for patient-derived GSCs. It is filed as cell-based. The following applies: Homo sapiens, 72 h, summary statement. Here is the method: MTT assay was used to study cell viability. For that, cells were seeded at a density of 1.5 × 10^3 cells/well in 96-well plates, incubated overnight and then treated with increasing concentrations of DDI199. After 72 h of treatment, MTT absorbance was measured at 570 nm. GraphPad Prism software was used to analyze results and calculate IC50 values.

In test [2] the target is HDAC1 (Homo sapiens, UniProt Q13547). In words: HDAC1 enzyme inhibition. The test is classed as biochemical. To be noted: read-out: HDAC inhibition IC50 HDAC1. The protocol:
The inhibitory capacity of DDI199 on HDACs was studied as previously described. The capacity of DDI199 to inhibit MAOs was studied by mimicking the reaction occurring in cells. Briefly, inhibitor solution containing 10 µM of DDI199 or reference compound was incubated for 30 minutes at 37 °C together with the enzyme solution, containing either recombinant hMAO-A (Sigma-Aldrich) at 0.5 U/mL or hMAO-B (Sigma-Aldrich) at 1.5 U/mL. 200 U/mL horseradish peroxidase (Sigma-Aldrich), 20 mM Ampliflu Red (Sigma-Aldrich) and 100 mM tyramine hydrochloride (Sigma-Aldrich) were then added and absorbance at 570 nm was measured every 5 minutes for 30 minutes. Percentage of inhibition was estimated from these values.

For test [3], the system named is U87-MG tumor cells. In words: Re-injection (regrowth) of cells from treated tumors. The test is classed as in vivo, athymic nude-Foxn1nu mice. Here is the method:
For tumor growth experiments, 5 × 10^5 U87-MG cells were subcutaneously injected into two bottom flanks of athymic nude-Foxn1^nu mice, and once tumors reached a size of 25-50 mm^3, mice were sorted into groups taking into account gender and tumor size. Afterwards, mice were intratumorally treated with vehicle, SAHA 100 µM or DDI199 100 µM following a schedule of 5 days on and 2 days off. In combined treatment, mice were treated intraperitoneally with 0.5 mg/Kg of TMZ for 5 days and intratumorally following a schedule of 5 days on and 2 days off with vehicle, SAHA 100 µM or DDI199 100 µM. After 4 weeks of treatment, some mice were kept for washout experiment, while the rest were sacrificed and tumors were extracted for immunohistochemistry and to disaggregate for reinjection and oncosphere formation studies. For reinjection assays, 1.5 × 10^5 cells were subcutaneously injected and tumor size was periodically measured. Once tumors reached end-point criteria, they were extracted for immunohistochemical analysis. An external caliper was used for tumor size measurement and the tumor volume was estimated using the formula V = L · W^2 · 0.5 (where L is tumor length and W is the tumor width).

Several values for one entry are separate records, joined by “and”; a condition that tells them apart may be missing. Identical values can stand only once.

Sequence of HDAC1 (Q13547 whole entry): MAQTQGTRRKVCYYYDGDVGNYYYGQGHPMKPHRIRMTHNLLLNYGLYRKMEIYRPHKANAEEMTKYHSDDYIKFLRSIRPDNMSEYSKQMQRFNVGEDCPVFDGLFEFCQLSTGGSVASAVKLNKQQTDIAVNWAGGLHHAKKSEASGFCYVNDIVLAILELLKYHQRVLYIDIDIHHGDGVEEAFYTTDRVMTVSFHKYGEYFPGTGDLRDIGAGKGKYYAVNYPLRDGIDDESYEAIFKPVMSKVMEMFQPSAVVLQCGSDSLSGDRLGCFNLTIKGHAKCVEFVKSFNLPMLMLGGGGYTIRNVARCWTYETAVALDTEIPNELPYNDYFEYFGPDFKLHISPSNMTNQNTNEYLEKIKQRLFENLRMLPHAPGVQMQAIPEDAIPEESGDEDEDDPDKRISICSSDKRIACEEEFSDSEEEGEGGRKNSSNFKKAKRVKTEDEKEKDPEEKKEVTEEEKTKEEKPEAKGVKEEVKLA

A word on the IC50: it is the concentration needed to halve the response being measured. In turn, `C#CCN(Cc1cc2cc(OCCCN3CCCCC3)ccc2n1S(=O)(=O)c1ccccc1)C(=O)CCCCCCC(=O)NO` [DDI199] gave an IC50 in test [1] of 5000 to 13000 nM. For the same molecule, the IC50 in test [2] is 377 nM and 370 nM. Moreover, the “Tumors reforming after re-injection, combined with TMZ” value in test [3] (cells from TMZ + DDI199 treated tumors) is reported as 1 tumor out of 3. In test [3] (cells from treated tumors), the “Reduction of final tumor weight after re-injection versus control” value is on record as approximately 70% and the “Reduction of tumor volume after re-injection versus control” value was determined as 60%. The “Mean tumor volume after re-injection” value in test [3] (cells from treated tumors, controls over 500 mm^3) was 200 mm^3.
